System: laparoscopic ports
Experiment: Laparoscopic cutaneous studies: treated vs untreated laparoscopic port sites
Assay type: in vivo, human
Details: another patient, 10 days after the treatment
Procedure: Cellerity® 10 topical lotion has been used in single patient multiple sites laparoscopic procedure studies. The studies compared healing time, severity of scar formation and inflammation at laparoscopic ports with and without CGP treatment.
The treatment was started within 24 hours after the laparoscopic surgery. The patient was instructed to allow the applied lotion to dry completely before applying their clothes and not to wash the treatment area for two hours after the application. This procedure was performed twice a day for three full weeks. […] The untreated ports were grossly inflamed, had tissue necrosis at the incision site and desquamation of epithelium. It also remained inflamed and the staple sites were still prominent and erythematous. At the incision line, a glassy layer of fibroblastic scar tissue was present.
Steri-Strips to the left side of the incisions, and leaving the midline left untreated. […] The untreated midline scar remained as inflamed and delayed in the healing process by 3-4 weeks, because the inflamed situation must resolve before the healing can occur. That delay appeared to have allowed more fibroblastic growth in the untreated scar, than was present on the treated scars.

calcium glycerophosphate [CGP]
edematous changes vs untreated midline incision (left and right sides treated): no edematous changes | erythema vs untreated midline incision (left and right sides treated): less erythema | inflammation vs untreated midline incision (left and right sides treated): substantially less inflammation | difference between direct application (right side) and application through Steri-Strips (left side) (treatment started 24 hours after surgery): no difference
